Assay results published in US9447446B2, “Lipid multilayer microarrays and their use for cell culture screening” (FLORIDA STATES UNIVERSITY RESEARCH FOUNDATION, priority 2011, dated 2016).

How the values were obtained:
NIH 3T3 cells [1] = test: live cell imaging of DOPE-rhodamine uptake from lipid pattern; format: cell-based; details: cells cultured over lipid pattern for 25 hours; decrease starts after 20 hours, complete by 25 hours
Procedure: DOTAP is mixed with 1 mol % DOPE-rhodamine, and 2 μL was deposited in the M-type inkwell for the DPN 2000.
Microscopy for all the imaging except the supplementary video is done with a Nikon Eclipse Ti microscope. The printed patterns and the Retiga-SRV fast 1394 camera are used. Patterns are imaged in brightfield before cell culture. Nikon fluorescence filter sets B-2E/C FITC and G-2E/C TRITC are used for the live/dead cell assay. Imaging is done at 800 m sec exposure time with the 10× (NA=0.3) objective and at 1 second for the 4× (NA=0.13) objective. Lamp intensity for all imaging is set at 4. Microscopy for the live cell lipid uptake for the supplementary video is done with a Nikon TE-2000-E inverted microscope equipped with a Nikon Plan Apo 40× (NA=0.95) DIC objective.
FIGS. 10, 11, 12, 13, 14 and 15 show the uptake of DOPE-rhodamine-labeled DOTAP by NIH 3T3 cells. […] Fluorescence intensity is used as the indicator of the amount of lipid taken up by the cells. A higher fluorescence in cells indicates higher uptake of lipids. Grid lines 1022 and 1024 in FIG. 10 and grid lines 1026 and 1028 in FIGS. 10 and 11 divide the images of FIGS. 10 and 11 into areas 1032 and 1034, respectively, analyzed and compared for fluorescence intensity before and after cell incubation on the patterns. […]

NIH 3T3 cells [2] = format: cell-based; details: for cell death over drug pattern: lipid (DOTAP)-encapsulated drug pattern, FIG. 21
Procedure: NIH 3T3 cells (obtained from the American Type Culture Collection, CRL-1658™, and maintained according to the collections guidelines) for all experiments are seeded at 4×10^5 cells/mL and grown to 70% confluence in Dulbecco's Modified Eagle Medium supplemented with 10% Cosmic Calf Serum (Sigma Aldrich). Trypsin (0.25%) is used for cell detachment, and the medium is replaced with fresh medium 24 hours before the experiment. Cells are seeded onto the patterned glass coverslips by gently pipetting a drop of the cell suspension directly over each pattern to prevent the patterns from being washed away. The same method is used to seed other parts of the slide for use as control areas. The cells are incubated over the patterned areas for 48 hours.
Aliquots of valinomycin (20 mg/mL) and DOTAP (20 mg/mL), both dissolved in chloroform, are placed in an amber glass vial and serially diluted to produce valinomycin masses of 20, 10, 5, 2.5, 1.25 and 0.63 mg. Drying, liposome formation and cell culture are conducted as described above for the Rhodamine dose-response. Toxicity assays are performed after 24 and 48 hours.
Docetaxel (20 mg/mL) dissolved in DMSO is further serially diluted in Hank's buffered salt solution to produce seven solutions with docetaxel masses of 50, 25, 12.5, 6.25, 3.2, 1.6 and 0.8 mg respectively, each with a total volume of […]. The eighth is a solution of DMSO only (control) at the same volume as the 50 mg solution. These mixtures are added to […] of medium and added to the cells in the same manner as described above for the Rhodamine dose-response. Toxicity assays are performed after incubation for 48 hours.
The BacLight live/dead assay is purchased from Invitrogen. The cells are incubated with both SYTO 9 and propidium iodide for 20 min. The cells stained with both are counted as dead, and those stained with SYTO 9 only are counted as live.^34,35 All counting of live and dead cells is done by hand.
Valinomycin is tested first because of its quick action as a cytotoxic agent and immediate action upon incorporation into the cellular membrane. The drug acts as a potassium ionophore, facilitating loss of potassium and resulting in cell death. FIGS. 16, 17, 18 and 19 show a toxicity assay of cells that are cultured over a lipid multilayer microarray. […] In FIGS. 16, 17 and 18, arrows in 1612, 1614 and 1616 point to the same alignment mark. FIG. 16 is a brightfield image of DOTAP/valinomycin pattern before cell culture. […] FIG. 18 is a higher magnification of the square area 1702 of FIG. 17. Images are taken after 24 hours. Images in FIGS. 17 and 18 are the merged TRITC and FITC fluorescence channel images. FIG. 19 is a mosaic of images (TRITC filter set). Central square 1902 corresponds to FIG. 17, and the other squares are the areas immediately surrounding central square 1902. All live cells are stained green; nuclei of dead cells are stained red.
Taxotere® (docetaxel) is an anticancer drug and is a second-generation, semisynthetic analog of Taxol® (paclitaxel). Taxanes, which include paclitaxel and docetaxel, work by binding to microtubules and stabilizing them, thus preventing their disassembly and progression through mitosis, and therefore their functioning inside the cytoplasm. The cell may revert to the G1 phase or undergo apoptosis.^36 Cells are plated over patterns (such as that in FIG. 16) consisting of lipid only, lipid-encapsulated docetaxel and lipid-encapsulated valinomycin, all on the same glass coverslip and incubated for 48 hours. The results are shown in FIGS. 20, 21, 22, 23, 24, 25, 26, 27, 28 and 29.

[3] = NIH 3T3 cells, 48 hours, live/dead assay

In the case of “1,2-dioleoyl-sn-glycerol-3-phosphoethanolamine-N-(lissamine rhodamine b sulfonyl) (ammonium salt) [DOPE-rhodamine]”, the “critical uptake time (window in which fluorescence of absorbed spots disappears)” value (NIH 3T3 cells [1]) is reported as 5 h.
With `CCCCCCCC/C=C\CCCCCCCC(=O)OCC(C[N+](C)(C)C)OC(=O)CCCCCCC/C=C\CCCCCCCC.[Cl-]` (stereo not shown) [DOTAP, 1,2-dioleoyl-3-trimethylammonium-propane (chloride salt)] the “toxicity of lipid-only pattern versus control with medium only” value (NIH 3T3 cells [2]; DOTAP-only pattern, NIH 3T3 cells, 48 hours, p>0.05) was “did not differ significantly”.
For `CC(=O)O[C@@]12CO[C@@H]1C[C@H](O)[C@@]1(C)C(=O)[C@H](O)C3=C(C)[C@@H](OC(=O)[C@H](O)[C@@H](NC(=O)OC(C)(C)C)c4ccccc4)C[C@@](O)([C@@H](OC(=O)c4ccccc4)[C@H]21)C3(C)C` [docetaxel], the “comparable concentration of docetaxel dissolved in DMSO delivered from solution” value (NIH 3T3 cells [2]; equivalent solution concentration for the toxicity of the docetaxel pattern, 48 hours) was “approximately 6.25 mg/mL” and the “cell death over drug pattern” value (NIH 3T3 cells [2]; [3]) was “over 60%”.
`CC(C)[C@@H]1NC(=O)[C@H](C)OC(=O)[C@@H](C(C)C)NC(=O)[C@@H](C(C)C)OC(=O)[C@H](C(C)C)NC(=O)[C@H](C)OC(=O)[C@@H](C(C)C)NC(=O)[C@@H](C(C)C)OC(=O)[C@H](C(C)C)NC(=O)[C@H](C)OC(=O)[C@@H](C(C)C)NC(=O)[C@@H](C(C)C)OC1=O` [valinomycin] was tested, and the “toxicity level from the surface (cells killed)” value (NIH 3T3 cells [2]; DOTAP/valinomycin pattern (4:1 lipid-to-drug), NIH 3T3 cells, 24 hours, live/dead assay) was “about 11%”, the “corresponding concentration of liposomal drug delivered from solution” value (NIH 3T3 cells [2]; equivalent solution concentration for the toxicity of the DOTAP/valinomycin pattern, 24 hours) was “about 0.1 mg/mL” and the “cell death over drug pattern” value (NIH 3T3 cells [2]; [3]) was “about 25%”.
